Experimental data from patent US11834424B2, “Compounds useful as chaperone-mediated autophagy modulators” (ALBERT EINSTEIN COLLEGE OF MEDICINE, priority 2018, dated 2023).
Several values for one entry are separate records, joined by “and”; a condition that tells them apart may be missing. Identical values can stand only once. Like-named read-outs stand apart in the source and are kept apart here.

Experiment: Pharmacokinetics (plasma and brain levels) in ICR (CD-1) mice
Format: in vivo
Settings: i.v. 1 mg/kg, 1 mg/kg
Method: ICR (CD-1) male mice were fasted at least three horns and water was available ad libitum before the study. Animals were housed in a controlled environment, target conditions: temperature 18 to 29° C., relative humidity 30 to 70%. Temperature and relative humidity was monitored daily. An electronic time controlled lighting system was used to provide a 12 h light/12 h dark cycle. 3 mice for each indicated time point. ICR (CD-1) mice were administered CA77 at 1 mg/kg i.v. and 30 mg/kg p.o. or CA77.1 at 1 mg/kg i.v. (FIG. 2A) and 10 mg/kg p.o. (FIG. 2B). Three (3) mice were included in each dosage and time group. Mice were sacrificed and plasma and brains were obtained at 0.083, 0.25, 0.50, 1.0, 2.0, 4.0, 8.0, and 24.0 hours after administration and drug concentration determined using LC-MS/MS. Brains were removed, homogenized with a tissue homogenizer in cold 5% w/v BSA in phosphate buffer saline (PBS). A 100 microliter aliquots of brain samples were dispensed in to glass culture tubes and mixed with ethyl acetate (800 μl), vortexed, and centrifuged. The organic layer was transferred to a fresh culture tube, dried under nitrogen, and reconstituted in mobile phase for quantitation. Pharmacokinetic parameters were determined by standard methods using Phoenix WinNonlin 6.3 software.
Tables 3A and 3B provide the concentrations of CA77 in ICR (CD-1) mouse plasma (3A) and mouse brain (3B) following i.v. administration of 1 mg/kg CA77. Table 3C provides the brain/plasma ratio of CA77 following i.v. administration of 1 mg/kg CA77. Shaded cells indicate data not included in statistics due to aberrant value. BLQ=Below Limit of Quantitation.
Tables 5A and 5B provide the concentrations of CA77.1 in ICR (CD-1) mouse plasma (5A) and mouse brain (5B) following i.v. administration of 1 mg/kg CA77.1. Table 5C provides the brain/plasma ratio of CA77.1 following i.v. administration of 1 mg/kg CA77.1. The plasma and brain pharmacokinetic parameters for CA77.1 are provided in Table 6. *—cells contain data not present in the statistics.

Conc. in brain, individual animal (mouse brain, 0.083 h): 2943 ng/g and *693 ng/g
Conc. in brain, individual animal (mouse brain, 0.25 h): 3391 ng/g and 5173 ng/g and 2397 ng/g
Conc. in brain, individual animal (mouse brain, 0.50 h): 2795 ng/g and 2950 ng/g
Conc. in brain, individual animal (mouse brain, 1.00 h): 2651 ng/g and 2154 ng/g
Conc. in brain, individual animal (mouse brain, 2.00 h): 411 ng/g and 792 ng/g
Conc. in brain, individual animal (mouse brain, 4.00 h): 112 ng/g and 124 ng/g
Conc. in brain, individual animal (mouse brain, 8.00 h): 7.74 ng/g and 27.5 ng/g and 41.4 ng/g
Conc. in brain, individual animal (mouse brain, 24.0 h): 2.68 ng/g and 4.25 ng/g and 2.07 ng/g
Conc. in plasma, individual animal (mouse plasma, 0.083 h): 41.4 ng/mL and *14 ng/mL
Conc. in plasma, individual animal (mouse plasma, 0.25 h): 27.2 ng/mL and 43.9 ng/mL and 19.5 ng/mL
Conc. in plasma, individual animal (mouse plasma, 0.50 h): 14.6 ng/mL and 21.9 ng/mL
Conc. in plasma, individual animal (mouse plasma, 1.00 h): 21.5 ng/mL and 15.3 ng/mL
Conc. in plasma, individual animal (mouse plasma, 2.00 h): 7.54 ng/mL and 1.71 ng/mL and 3.84 ng/mL
Conc. in plasma, individual animal (mouse plasma, 4.00 h): BLQ and 0.533 ng/mL
Brain/Plasma ratio, individual animal (mouse, 0.083 h): 71.1 and *48.9
Brain/Plasma ratio, individual animal (mouse, 0.25 h): 118 and 123
Brain/Plasma ratio, individual animal (mouse, 0.50 h): 192 and 135
Brain/Plasma ratio, individual animal (mouse, 1.00 h): 123 and 141
Brain/Plasma ratio, individual animal (mouse, 2.00 h): 102 and 240 and 206
Brain/Plasma ratio, individual animal (mouse, 4.00 h): 232
concentration at 0.083 h (male, ICR (CD-1), mouse, brain, iv, mouse brain, 0.083 h, read-out: Conc. in brain, Mean): 3360 ng/g
concentration at 0.083 h (male, ICR (CD-1), mouse, brain, iv, mouse brain, 0.083 h, read-out: Conc. in brain, individual animal): 3770 ng/g
concentration at 0.25 h (male, ICR (CD-1), mouse, brain, iv, mouse brain, 0.25 h, read-out: Conc. in brain, Mean): 3650 ng/g
concentration at 0.5 h (male, ICR (CD-1), mouse, brain, iv, mouse brain, 0.50 h, read-out: Conc. in brain, Mean): 2650 ng/g
concentration at 0.5 h (male, ICR (CD-1), mouse, brain, iv, mouse brain, 0.50 h, read-out: Conc. in brain, individual animal): 2200 ng/g
concentration at 1 h (male, ICR (CD-1), mouse, brain, iv, mouse brain, 1.00 h, read-out: Conc. in brain, Mean): 2460 ng/g
concentration at 1 h (male, ICR (CD-1), mouse, brain, iv, mouse brain, 1.00 h, read-out: Conc. in brain, individual animal): 2760 ng/g
concentration at 2 h (male, ICR (CD-1), mouse, brain, iv, mouse brain, 2.00 h, read-out: Conc. in brain, Mean): 659 ng/g
concentration at 2 h (male, ICR (CD-1), mouse, brain, iv, mouse brain, 2.00 h, read-out: Conc. in brain, individual animal): 773 ng/g
concentration at 4 h (male, ICR (CD-1), mouse, brain, iv, mouse brain, 4.00 h, read-out: Conc. in brain, Mean): 104 ng/g
concentration at 4 h (male, ICR (CD-1), mouse, brain, iv, mouse brain, 4.00 h, read-out: Conc. in brain, individual animal): 76 ng/g
concentration at 8 h (male, ICR (CD-1), mouse, brain, iv, mouse brain, 8.00 h, read-out: Conc. in brain, Mean): 25.6 ng/g
concentration at 24 h (male, ICR (CD-1), mouse, brain, iv, mouse brain, 24.0 h, read-out: Conc. in brain, Mean): 3 ng/g
Kp at 0.083 h (male, ICR (CD-1), mouse, brain/plasma, iv, mouse, 0.083 h, read-out: Brain/Plasma ratio, Mean): 71.2
Kp at 0.083 h (male, ICR (CD-1), mouse, brain/plasma, iv, mouse, 0.083 h, read-out: Brain/Plasma ratio, individual animal): 71.3
Kp at 0.25 h (male, ICR (CD-1), mouse, brain/plasma, iv, mouse, 0.25 h, read-out: Brain/Plasma ratio, Mean): 122
Kp at 0.25 h (male, ICR (CD-1), mouse, brain/plasma, iv, mouse, 0.25 h, read-out: Brain/Plasma ratio, individual animal): 125
Kp at 0.5 h (male, ICR (CD-1), mouse, brain/plasma, iv, mouse, 0.50 h, read-out: Brain/Plasma ratio, Mean): 151
Kp at 0.5 h (male, ICR (CD-1), mouse, brain/plasma, iv, mouse, 0.50 h, read-out: Brain/Plasma ratio, individual animal): 128
Kp at 1 h (male, ICR (CD-1), mouse, brain/plasma, iv, mouse, 1.00 h, read-out: Brain/Plasma ratio, Mean): 159
Kp at 1 h (male, ICR (CD-1), mouse, brain/plasma, iv, mouse, 1.00 h, read-out: Brain/Plasma ratio, individual animal): 178
Kp at 2 h (male, ICR (CD-1), mouse, brain/plasma, iv, mouse, 2.00 h, read-out: Brain/Plasma ratio, Mean): 183
Kp at 4 h (male, ICR (CD-1), mouse, brain/plasma, iv, mouse, 4.00 h, read-out: Brain/Plasma ratio, Mean): 210
Kp at 4 h (male, ICR (CD-1), mouse, brain/plasma, iv, mouse, 4.00 h, read-out: Brain/Plasma ratio, individual animal): 188
concentration at 0.083 h (male, ICR (CD-1), mouse, plasma, iv, mouse plasma, 0.083 h, read-out: Conc. in plasma, Mean): 47.1 ng/mL
concentration at 0.083 h (male, ICR (CD-1), mouse, plasma, iv, mouse plasma, 0.083 h, read-out: Conc. in plasma, individual animal): 52.9 ng/mL
concentration at 0.25 h (male, ICR (CD-1), mouse, plasma, iv, mouse plasma, 0.25 h, read-out: Conc. in plasma, Mean): 30.2 ng/mL
concentration at 0.5 h (male, ICR (CD-1), mouse, plasma, iv, mouse plasma, 0.50 h, read-out: Conc. in plasma, Mean): 17.9 ng/mL
concentration at 0.5 h (male, ICR (CD-1), mouse, plasma, iv, mouse plasma, 0.50 h, read-out: Conc. in plasma, individual animal): 17.2 ng/mL
concentration at 1 h (male, ICR (CD-1), mouse, plasma, iv, mouse plasma, 1.00 h, read-out: Conc. in plasma, Mean): 15.4 ng/mL
concentration at 1 h (male, ICR (CD-1), mouse, plasma, iv, mouse plasma, 1.00 h, read-out: Conc. in plasma, individual animal): 15.5 ng/mL
concentration at 2 h (male, ICR (CD-1), mouse, plasma, iv, mouse plasma, 2.00 h, read-out: Conc. in plasma, Mean): 4.37 ng/mL
concentration at 4 h (male, ICR (CD-1), mouse, plasma, iv, mouse plasma, 4.00 h, read-out: Conc. in plasma, Mean): 0.565 ng/mL
concentration at 4 h (male, ICR (CD-1), mouse, plasma, iv, mouse plasma, 4.00 h, read-out: Conc. in plasma, individual animal): 0.597 ng/mL
Structure (SMILES): CC(=O)Nc1ccc(C2=Nc3ccc(Cl)cc3OC2)cc1 [CA77, reference compound]
